# Experimental data published in patent US20170266284A1, “PERSONALIZED METHODS FOR TREATING DISEASE BY RADIOSENSITIZATION” (Shuttle Pharmaceuticals, LLC, priority 2014, published 2017).
# Several values for one entry are separate records, joined by “and”; a condition that tells them apart may be missing. Identical values can stand only once.
# What was measured:
# [1] = tested on: clinical Stage 2 and 3 rectal cancers; conditions: cited from earlier work; for patients achieving tumor (T stage) downstaging: pre-operative chemoradiation, continuous infusion 5-FU or twice daily capecitabine
# cells = conditions: compared to cells without the defective DNA; cited from earlier work
# [2] = multiple daily oral IPdR dosing, pre-clinical; cited from earlier work
# [3] = tested on: subcutaneous xenografts of human glioblastoma cell lines and human colorectal cancer cell lines; conditions: daily oral IPdR compared to continuous infusion IUdR; cited from earlier work
# [4] = tested on: proliferating normal tissues (bone marrow and intestine); conditions: daily oral IPdR compared to continuous infusion IUdR; cited from earlier work
# [5] = tested on: locally advanced rectal cancer; experiment: Concomitant daily oral capecitabine and oral IPdR during radiation therapy (proposed); format: in vivo, human; conditions: oral IPdR with oral capecitabine during radiation therapy; expected ("may")
# Method: This may, in turn, correlate with increased survival and improved quality of life for these patients. By establishing the MTD and documenting the plasma PK data for once daily oral administration of IPdR combined with fractionated radiation therapy (37.5 Gy @ 2.5 Gy fractions over 3 weeks), the daily (or twice daily) IPdR dose may be reduced by two dose levels, while using standard doses of capecitabine (750 mg/M^2) and radiation therapy (50.4-54 Gy @ 1.8 Gy fractions).
# High Grade Sarcomas = experiment: IUdR as radiosensitizer with RT in patients with high grade sarcomas, vs historical controls; format: in vivo, human
smiles,measurement,setting,value
"O=c1[nH]cc(F)c(=O)[nH]1 [5-FU, 5-fluorouracil]",patients achieving tumor (T stage) downstaging,[1],about 45%
"O=c1[nH]c(=O)n([C@H]2C[C@H](O)[C@@H](CO)O2)cc1Br [BUdR, 5-bromo-2′-deoxyuridine]",cells more susceptible to the lethal effects of radiation therapy,cells,two to three fold
"O=c1ncc(I)cn1[C@H]1C[C@H](O)[C@@H](CO)O1 [IPdR, 5-iodo-2-pyrimidinone-2′-deoxyribose]",acute and subacute normal tissue toxicities,[2],without significant dose-limiting acute and subacute normal tissue toxicities
same,increased % IUdR-DNA incorporation into tumor tissues,[3],2-3 fold
same,decreased % IUdR-DNA incorporation into proliferating normal tissues (bone marrow and intestine / gut epithelium),[4],2-3 fold and 2 fold
same,pCR rate,[5],> 30%
"O=c1[nH]c(=O)n([C@H]2C[C@H](O)[C@@H](CO)O2)cc1I [IUdR, 5-iodo-2′-deoxyuridine]",cells more susceptible to the lethal effects of radiation therapy,cells,two to three fold
same,Median Survival (Months),"High Grade Sarcomas; RT + IUdR + Surgery, High Grade Sarcomas (Resectable), RT + Surgery 25%",45%
same,Median Survival (Months),"High Grade Sarcomas; RT + IUdR, High Grade Sarcomas (Un-Resectable), RT alone <10%",60%
CCCCCOC(=O)Nc1nc(=O)n([C@@H]2O[C@H](C)[C@@H](O)[C@H]2O)cc1F [capecitabine],"pCR, local recurrence, and overall survival, comparison with infusional 5-FU",[1]; capecitabine administered twice daily,equivalent to infusional 5-FU
same,patients achieving tumor (T stage) downstaging,[1],about 45%
